Our source for the IC50 values is US10981906B2, “Substituted pyrrolopyridine JAK inhibitors and methods of making and using the same” (ACLARIS THERAPEUTICS, INC., priority 2017, dated 2021).

Where a name gives a salt, the structure may show the parent alone. Read-outs that look alike come from different tables or passages of the source.

Experiment [1] deals with IL-2 stimulated STAT5 phosphorylation on Tyr694 (JAK1/3). The experiment in a line: JAK1/3 cellular target modulation: IL-2 stimulated phospho-STAT5 in PBMC. It counts as cell-based. The note with it: IL-2 25 ng/ml, 1 hour compound preincubation, read-out: IL2-STAT5 Inhibition IC50. An excerpt: (§1) Target modulation was based upon the ability of a compound to inhibit JAK isoform specific phosphorylation of selected substrates. IL-2 stimulated STAT5 phosphorylation on Tyr694 was used to assess JAK1/3 compound selectivity. GM-CSF stimulated STAT5 phosphorylation on Tyr694 was used to assess JAK2 compound selectivity. IFNγ stimulated STAT1 phosphorylation on Tyr701 was used to assess JAK1/2 compound selectivity. For all three assays, human PBMC from frozen stocks were thawed, pelleted, resuspended in complete media (90% RPMI, 10% heat inactivated FBS, 10 mM HEPES, 47 μM 2-ME, pen/strep) and placed in wells of a 96 well V-bottom plate at 200,000 per well in 120 μl complete media. Compounds were added as 15 μl per well of 10× working stock solutions in complete media with 1% DMSO (or medium with 1% DMSO for controls) and placed on a plate shaker in a 37° C. incubator with 5% CO2 for 1 hour with gentle shaking (setting of 3). Stimulation used the addition of soluble cytokines. For the JAK1/3 phospho-STAT5 assay, 15 μl of 10× working stock recombinant human IL-2 was added to a final concentration of 25 ng/ml. For the JAK2 phospho-STAT5 assay, 15 μl of 10× working stock recombinant human GM-CSF was added to a final concentration of 5 ng/ml. For the JAK1/2 phospho-STAT1 assay, 15 μl of 10× working stock of recombinant human IFNγ was added to a final concentration of 10 ng/ml. Plates were then placed back on the plate shaker in the incubator for an additional 5, 5 and 10 minutes respectively upon which the plates were removed from the incubator, sealed with a plate sealer and the cells pelleted at 400×g for 5 minutes. After pelleting, the media was removed by aspiration and the cells were lysed in ELISA specific cell lysis buffer. The levels of phospho-STAT5 were determined using a Phospho (Tyr694)/Total STAT5a,b Whole Cell Lysate kit from Meso Scale Discovery. Levels of phospho-STAT1 were determined using a CST-PathScan Phospho-STAT1 (Tyr701) Sandwich ELISA kit.

In a further experiment the target is JAK3 (a.a. 781-1124) (Homo sapiens (Human), UniProt P52333). The experiment in a line: JAK3 enzyme activity assay (SRCtide phosphorylation, Caliper). The note with it: 2.5 nM JAK3, 1 μM SRCtide, 1 uM ATP, 40 minutes; read-out: JAK3 Inhibition IC50. It counts as biochemical. As for the experimental part:
The activity of JAK3 (a.a. 781-1124, ThermoFisher) was quantified by measuring the phosphorylation of SRCtide (FAM-GEEPLYWSFPAKKK-NH2). Kinase reactions were run in a 384-well Greiner plate with 2% final DMSO concentration under the buffer conditions of 20 mM HEPES, pH 7.5, 10 mM MgCl2, 0.01% BSA, and 0.0005% Tween-20. The kinase reaction components were 2.5 nM JAK3, 1 μM SRCtide peptide and 1 uM ATP. Examples were tested in dose-response starting at 2 μM (11 concentrations, 3-fold serial dilution, duplicate reactions). The reactions were incubated at room temperature for 40 minutes, then stopped by adding a 1:1 volume of 30 mM EDTA in 20 mM HEPES, pH 7.5 (15 mM EDTA final). After the reaction was stopped, the phosphorylated and unphosphorylated peptides were separated and quantified using a Caliper LC3000/EZ-Reader system and HTS Well Analyzer Software (Caliper, A PerkinElmer Company, Hopkinton, Mass.). GraFit (Erithacus Software Ltd., Horley, U.K.) was used to calculate inhibitor potency by fitting dose-response data to the 4-parameter logistical IC50 equation.
(§2) Background signal is defined in the absence of enzyme and uninhibited signal is defined in the presence of vehicle (2% DMSO) alone. Compounds were evaluated in an 11 point dose-response ranging from […] to 0.34 nM. IC50 values of compounds are determined using a 4 parameter logistical fit of emission ratio as a function of the concentration of compound.

Experiment [2] has as its system IFNγ stimulated STAT1 phosphorylation on Tyr701 (JAK1/2). Put plainly: JAK1/2 cellular target modulation: IFNγ stimulated phospho-STAT1 in PBMC. It counts as cell-based. The note with it: Homo sapiens, PBMC, IFNγ 10 ng/ml, 1 hour compound preincubation, read-out: Infγ-STAT1 IC50.
Excerpt: as §1

Another experiment deals with JAK1 (Homo sapiens (Human), UniProt P23458). The experiment in a line: JAK1 enzyme activity assay (Thermo Fisher SelectScreen Z-lyte). Conditions: 1 hour kinase reaction, read-out: JAK1 Inhibition IC50. It counts as biochemical. Here is the method: The inhibitory potency of candidate compounds of JAK1 done at Thermo Fisher Scientific in their Selectscreen using a Z-lyte assay. The 2×JAK1/Tyr 06 mixture is prepared in 50 mM HEPES pH 6.5, 0.01% BRIJ-35, 10 mM MgCl2, 1 mM EGTA, 0.02% NaN3. The final 10 μL of the Kinase Reaction consists of 21.2-91.5 ng JAK1 and 2 μM Tyr 06 in 50 mM HEPES pH 7.0, 0.01% BRIJ-35, 10 mM MgCl2, 1 mM EGTA, 0.01% NaN3. After the 1 hour Kinase Reaction incubation, 5 μL of a 1:128 dilution of Development Reagent is added.
as §2

Sequence of JAK3 (a.a. 781-1124) (P52333 781-1124): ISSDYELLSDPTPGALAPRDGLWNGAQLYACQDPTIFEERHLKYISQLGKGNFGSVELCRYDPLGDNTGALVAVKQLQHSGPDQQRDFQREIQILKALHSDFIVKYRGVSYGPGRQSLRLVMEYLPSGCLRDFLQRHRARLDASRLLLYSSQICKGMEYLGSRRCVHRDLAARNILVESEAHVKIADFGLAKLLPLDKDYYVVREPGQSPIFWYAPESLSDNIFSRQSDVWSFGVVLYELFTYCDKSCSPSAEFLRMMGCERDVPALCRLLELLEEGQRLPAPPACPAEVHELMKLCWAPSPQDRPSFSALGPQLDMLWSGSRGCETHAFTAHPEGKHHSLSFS
Sequence of JAK1 (P23458 whole entry): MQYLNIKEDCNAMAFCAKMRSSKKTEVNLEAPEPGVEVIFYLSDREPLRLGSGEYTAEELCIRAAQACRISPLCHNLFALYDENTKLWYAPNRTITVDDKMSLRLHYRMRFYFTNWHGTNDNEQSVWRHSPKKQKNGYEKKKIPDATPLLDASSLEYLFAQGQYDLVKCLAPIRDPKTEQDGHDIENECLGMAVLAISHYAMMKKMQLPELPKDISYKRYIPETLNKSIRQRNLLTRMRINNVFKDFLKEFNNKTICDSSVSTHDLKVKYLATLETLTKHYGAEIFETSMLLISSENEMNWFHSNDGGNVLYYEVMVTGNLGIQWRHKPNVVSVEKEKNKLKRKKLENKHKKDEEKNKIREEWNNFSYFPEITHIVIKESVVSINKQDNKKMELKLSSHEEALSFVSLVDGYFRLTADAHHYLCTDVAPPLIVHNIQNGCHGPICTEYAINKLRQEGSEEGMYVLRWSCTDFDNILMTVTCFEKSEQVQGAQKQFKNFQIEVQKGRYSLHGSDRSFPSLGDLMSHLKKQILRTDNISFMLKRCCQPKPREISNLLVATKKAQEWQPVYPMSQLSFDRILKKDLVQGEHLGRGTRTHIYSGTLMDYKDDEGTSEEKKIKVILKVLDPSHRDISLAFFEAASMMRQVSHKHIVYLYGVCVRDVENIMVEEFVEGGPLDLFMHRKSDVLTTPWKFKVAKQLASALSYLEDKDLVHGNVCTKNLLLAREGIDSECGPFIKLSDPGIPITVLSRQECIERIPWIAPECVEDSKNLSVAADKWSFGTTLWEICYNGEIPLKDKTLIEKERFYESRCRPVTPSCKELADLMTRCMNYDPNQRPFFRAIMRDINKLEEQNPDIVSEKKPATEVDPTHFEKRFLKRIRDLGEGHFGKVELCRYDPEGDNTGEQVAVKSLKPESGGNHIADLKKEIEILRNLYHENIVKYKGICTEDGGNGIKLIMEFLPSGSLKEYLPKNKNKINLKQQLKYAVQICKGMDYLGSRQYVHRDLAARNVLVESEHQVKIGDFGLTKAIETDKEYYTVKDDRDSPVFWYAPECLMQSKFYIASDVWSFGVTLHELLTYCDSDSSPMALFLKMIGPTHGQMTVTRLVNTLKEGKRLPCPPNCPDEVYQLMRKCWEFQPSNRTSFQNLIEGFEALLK

With `COC(=O)c1cnc2[nH]ccc2c1N[C@@H]1CCC[C@H](CCC#N)C1` (racemic) [Example 152, cis-racemic-methyl 4-((3-(2-cyanoethyl)cyclohexyl)amino)-1H-pyrrolo[2,3-b]pyridine-5-carboxylate], the IC50 in experiment [1] (Homo sapiens, PBMC) was at most 100 nM; on JAK3 (a.a. 781-1124), at most 10 nM; in experiment [2] it was 100 to 1000 nM; on JAK1, at most 10 nM.

As for `CCCOC(=O)c1cnc2[nH]ccc2c1N[C@H]1CCC[C@@H](CCC#N)C1` (racemic) [Example 139, (rac) (cis) propyl 4-((3-(2-cyanoethyl)cyclohexyl)amino)-1H-pyrrolo[2,3-b]pyridine-5-carboxylate], the IC50 is 100 to 1000 nM in experiment [1] (Homo sapiens, PBMC); at most 10 nM on JAK3 (a.a. 781-1124); above 1000 nM in experiment [2]; at most 10 nM on JAK1.

Take `COCCOC(=O)c1cnc2[nH]ccc2c1N[C@@H]1CCCN(C(=O)CC#N)C1` [Example 131, 2-methoxyethyl (R)-4-((1-(2-cyanoacetyl)piperidin-3-yl)amino)-1H-pyrrolo[2,3-b]pyridine-5-carboxylate]: the IC50 in experiment [1] (Homo sapiens, PBMC) is 100 to 1000 nM; at JAK3 (a.a. 781-1124) it was 10 to 100 nM; in experiment [2], 100 to 1000 nM; on JAK1 it was 10 to 100 nM.

In the case of `CCOC(=O)c1cnc2[nH]ccc2c1N(C)[C@H]1CC[C@H](CS(=O)(=O)NC)CC1` [Example 94, ethyl 4-(methyl((1r,4r)-4-((N-methylsulfamoyl)methyl)cyclohexyl)amino)-1H-pyrrolo[2,3-b]pyridine-5-carboxylate], the concentration for half-maximal inhibition (IC50) at JAK3 (a.a. 781-1124) was 10 to 100 nM.

In the case of `COCCOC(=O)c1cnc2[nH]ccc2c1N[C@@H]1CCC[C@H](CCC#N)C1` (single isomer, unassigned; enantiomer 2) [Example 150, cis 2-methoxyethyl 4-((3-(2-cyanoethyl)cyclohexyl)amino)-1H-pyrrolo[2,3-b]pyridine-5-carboxylate, enantiomer 2], the IC50 in experiment [1] (Homo sapiens, PBMC) is at most 100 nM; at JAK3 (a.a. 781-1124), at most 10 nM; in experiment [2], 100 to 1000 nM; on JAK1, at most 10 nM.

Take `C[C@@H]1CCN(C(=O)CC#N)C[C@@H]1Nc1c(C(=O)OC(C)(C)C)cnc2[nH]ccc12` [Example 119, tert-butyl 4-(((3R,4R)-1-(2-cyanoacetyl)-4-methylpiperidin-3-yl)amino)-1H-pyrrolo[2,3-b]pyridine-5-carboxylate]: the IC50 in experiment [1] (Homo sapiens, PBMC) is above 1000 nM; at JAK3 (a.a. 781-1124), 100 to 1000 nM; at JAK1 it was 100 to 1000 nM.

For the compound `CCOC(=O)c1cnc2[nH]ccc2c1N[C@H]1CN(C(=O)C(C)C#N)CC[C@H]1C` (stereo partly drawn) [Example 127, ethyl 4-(((3R,4R)-1-(2-cyanopropanoyl)-4-methylpiperidin-3-yl)amino)-1H-pyrrolo[2,3-b]pyridine-5-carboxylate], the IC50 in experiment [1] (Homo sapiens, PBMC) is at most 100 nM; at JAK3 (a.a. 781-1124) it was 10 to 100 nM; in experiment [2] it was 100 to 1000 nM; on JAK1, at most 10 nM.

For `CCOC(=O)c1cnc2[nH]ccc2c1N[C@H]1CN(CCC#N)CC[C@H]1C` [Example 24, ethyl 4-(((3R,4R)-1-(2-cyanoethyl)-4-methylpiperidin-3-yl)amino)-1H-pyrrolo[2,3-b]pyridine-5-carboxylate], the IC50 in experiment [1] (Homo sapiens, PBMC) was at most 100 nM; at JAK3 (a.a. 781-1124) it was at most 10 nM; in experiment [2] it was 100 to 1000 nM; on JAK1, at most 10 nM.

For the compound `CCOC(=O)c1cnc2[nH]ccc2c1N(C)[C@@H]1CC[C@@H](O)C1` (single isomer, unassigned) [Example 68B, (trans)-Ethyl 4-((-3-hydroxycyclopentyl)(methyl)amino)-1H-pyrrolo[2,3-b]pyridine-5-carboxylate], the IC50 is above 1000 nM in experiment [1] (Homo sapiens, PBMC); 10 to 100 nM on JAK3 (a.a. 781-1124); 100 to 1000 nM at JAK1.

With `CCOC(=O)c1cnc2[nH]ccc2c1N[C@@H]1CCC[C@@H](CCC#N)C1` (single isomer, unassigned; enantiomer 1) [Example 137, (trans) ethyl 4-((3-(2-cyanoethyl)cyclohexyl)amino)-1H-pyrrolo[2,3-b]pyridine-5-carboxylate enantiomer 1], the 50% inhibitory concentration (IC50) in experiment [1] (Homo sapiens, PBMC) was at most 100 nM; on JAK3 (a.a. 781-1124), at most 10 nM; in experiment [2] it was above 1000 nM; at JAK1 it was at most 10 nM.

In the case of `N#CCC(=O)N1CCC[C@@H](Nc2c(C(=O)O)cnc3[nH]ccc23)C1` [Example 121, (R)-4-((1-(2-cyanoacetyl)piperidin-3-yl)amino)-1H-pyrrolo[2,3-b]pyridine-5-carboxylic acid trifluoroacetic acid Salt], the IC50 in experiment [1] (Homo sapiens, PBMC) was above 1000 nM; on JAK3 (a.a. 781-1124), 100 to 1000 nM; on JAK1 it was 100 to 1000 nM.

As for `CCOC(=O)c1cnc2[nH]ccc2c1N(C)[C@H]1CC[C@H](O)C1` (single isomer, unassigned) [Example 68A, (trans)-Ethyl 4-((-3-hydroxycyclopentyl)(methyl)amino)-1H-pyrrolo[2,3-b] pyridine-5-carboxylate], the IC50 in experiment [1] (Homo sapiens, PBMC) was above 1000 nM; at JAK3 (a.a. 781-1124), 100 to 1000 nM; at JAK1 it was 100 to 1000 nM.

On to `CCOC(=O)c1cnc2[nH]ccc2c1N(C)[C@H]1CC[C@H](OC(=O)CC#N)C1` (single isomer, unassigned) [Example 69, (trans)-ethyl 4-((3-(2-cyanoacetoxy)cyclopentyl)(methyl)amino)-1H-pyrrolo[2,3-b]pyridine-5-carboxylate], for which the 50% inhibitory concentration (IC50) was above 1000 nM in experiment [1] (human PBMC), 100 to 1000 nM at JAK3 (a.a. 781-1124) and 100 to 1000 nM on JAK1.

Regarding `CCOC(=O)c1cnc2[nH]ccc2c1N[C@@H]1CCCN(C(=O)[C@@H]2CC2(F)F)C1` [Example 156, ethyl 4-(((R)-1-((S)-2,2-difluorocyclopropane-1-carbonyl)piperidin-3-yl)amino)-1H-pyrrolo[2,3-b]pyridine-5-carboxylate], the IC50 in experiment [1] (Homo sapiens, PBMC) is 100 to 1000 nM; at JAK3 (a.a. 781-1124), 10 to 100 nM.

For the compound `C[C@@H]1CCN(C(=O)CC#N)C[C@@H]1Nc1c(C(=O)O)cnc2[nH]ccc12` [Example 120, 4-(((3R,4R)-1-(2-cyanoacetyl)-4-methylpiperidin-3-yl)amino)-1H-pyrrolo[2,3-b]pyridine-5-carboxylic acid trifluoroacetic acid Salt], the 50% inhibitory concentration (IC50) in experiment [1] (Homo sapiens, PBMC) is above 1000 nM; at JAK3 (a.a. 781-1124) it was 100 to 1000 nM; at JAK1, 100 to 1000 nM.

Regarding `CCOC(=O)c1cnc2[nH]ccc2c1N[C@H]1CCCN(C(=O)CC#N)C1` [Example 143, ethyl (S)-4-((1-(2-cyanoacetyl)piperidin-3-yl)amino)-1H-pyrrolo[2,3-b]pyridine-5-carboxylate], the IC50 was above 1000 nM in experiment [1] (Homo sapiens, PBMC); 10 to 100 nM at JAK3 (a.a. 781-1124); 100 to 1000 nM at JAK1.
